From US20070270421A1, “Novel pyridine Derivative and Pyrimidine Derivative (1)” (priority 2004, published 2007) come the findings set out here.

pIC50: −log10 of the molar value.

For the assay, the target named is T1, HGFR (His6-HGFR cytoplasmic domain) (Homo sapiens, UniProt P08581).
T1 construct: made in house; host or cells: Spodoptera frugiperda Sf9 insect cells (baculovirus, pFastBac-HT)
T1 sequence (P08581 956-1390 limits assumed): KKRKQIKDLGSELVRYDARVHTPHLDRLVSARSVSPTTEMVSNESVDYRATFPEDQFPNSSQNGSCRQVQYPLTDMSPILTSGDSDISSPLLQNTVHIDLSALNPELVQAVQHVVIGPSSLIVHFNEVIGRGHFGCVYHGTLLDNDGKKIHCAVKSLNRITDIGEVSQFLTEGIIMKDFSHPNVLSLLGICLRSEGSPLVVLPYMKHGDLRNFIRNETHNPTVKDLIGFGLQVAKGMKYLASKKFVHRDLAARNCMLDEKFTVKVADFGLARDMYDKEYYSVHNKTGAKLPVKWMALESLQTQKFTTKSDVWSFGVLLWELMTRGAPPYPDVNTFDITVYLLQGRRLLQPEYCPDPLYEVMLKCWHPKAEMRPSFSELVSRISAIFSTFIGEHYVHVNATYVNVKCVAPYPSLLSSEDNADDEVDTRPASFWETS
Kind of assay: Inhibitory activity against HGFR tyrosine kinase activity (HTRF). The class given is biochemical. Conditions: biotin-poly(GT), ATP, 30° C. 10 min, read-out: IC50 (concentration necessary to inhibit HGFR kinase activity by 50%). From the text: The cytoplasmic domain of HGFR (Genbank Accession No. J02958) is a 1.3 kb DNA fragment beginning with Lys974 and including a stop codon, and described by Park et al. (Proc. Natl. Acad. Sci. U.S.A. 84(18), 6379-6383, 1987). The DNA fragment was isolated from the human placental cDNA library (purchased from Clontech) by PCR (TaKaRa Ex Taq™ Kit, purchased from TaKaRa) using two kinds of primers (SEQ ID NO: 1, 5′-[…]-3′ and SEQ ID NO: 2, 5′-[…]-3′, purchased from Invitrogen). The DNA fragment was cloned into a baculovirus transplace vector (pFastBac™-HT (purchased from GIBCO BRL)) to produce a recombinant construct. The construct was transfected into insect cells (Spodoptera frugiperda 9 (Sf9)) to produce a solution of HGFR transfected baculovirus (preparation of a recombinant baculovirus can be found in the standard text (Bac-to-Bac Baculovirus Expression System (GIBCO BRL)). The cloning of the other receptor tyrosine kinases and preparation of the recombinant baculovirus solutions were performed using a cytoplasmic fragment starting from Lys791 (VEGFR2, Genbank Accession No. L04947), a cytoplasmic fragment starting from Lys398 (FGFR1, Genbank Accession No. X52833) and a cytoplasmic fragment starting from Lys558 (PDGFRβ, Genbank Accession No. M21616) in stead of HGFR in the above method. EGFR was purchased from Sigma (Production No. E-2645).
To the suspension of Sf9 cells (3×10^8 cells) in SF-900II medium (purchased from Invitrogen) containing 2% FBS was added a solution of HGFR transfected baculovirus above (4 ml), followed by a shaking culture at 27° C. for 48 hrs. The cells infected with the HGFR transfected baculovirus were centrifuged at 1,000 rpm, 4° C. for 5 min to remove the supernatant. The precipitated infected cells were suspended in 80 ml of ice-cold PBS, and centrifuged at 1,000 rpm, 4° C. for 5 min to remove the supernatant. The precipitated infected cells were suspended in 40 ml of ice-cold Lysis Buffer (50 mM Tris-HCl (pH 8.5), 5 mM 2-mercaptoethanol, 100 mM KCl, 1 mM PMSF and 1% (v/v) NP-40). The suspension was centrifuged at 12,000 rpm, 4° C. for 30 min to provide a supernatant.
The supernatant was loaded onto an Ni-NTA agarose column (3 ml, purchased from Qiagen) equilibrated with 30 ml of Buffer A (20 mM Tris-HCl (pH 8.5), 5 mM 2-mercaptoethanol, 500 mM KCl, 20 mM imidazole and 10% (v/v) glycerol). The column was washed with 30 ml of Buffer A, 6 ml of Buffer B (20 mM Tris-HCl (pH 8.5), 5 mM 2-mercaptoethanol, 1 M KCl, and 10% (v/v) glycerol) and 6 ml of Buffer A in this order. Then, the column was eluted with 6 ml of Buffer C (20 mM Tris-HCl (pH 8.5), 5 mM 2-mercaptoethanol, 100 mM KCl, 100 mM imidazole, and 10% (v/v) glycerol) to provide a fraction. The fraction was entrapped in a dialysis membrane (purchased from Spectrum Laboratories), dialyzed at 4° C. overnight with 1 L of dialysis buffer (20 mM Tris-HCl (pH 7.5), 10% (v/v) glycerol, 1 mM dithiothreitol, 0.1 mM Na3VO4 and 0.1 mM EGTA), and stored at −80° C. until used. An aliquot of the dialyzed fraction was subjected to SDS electrophoresis, and then a recombinant protein (His6-HGFR, the HGFR cytoplasmic domain fused with six histidine at the N terminus) detected at a molecular weight of about 60 kDa when stained with Coomassie Brilliant Blue, was determined with regard to protein content using BSA (purchased from Sigma) as a standard. The VEGFR2 cytoplasmic domain, the FGFR1 cytoplasmic domain, and the PDGFRβ cytoplasmic domain were fused with six histidine at the N terminus by the similar method to produce respective recombinant proteins (His6-VEGFR2, His6-FGFR1, and His6-PDGFRβ). […]
Turning to `O=C(CC(=O)Nc1c(F)cccc1F)Nc1ccc(Oc2ccnc(NC(=O)N3CCCC3)c2)c(F)c1` [Example 59, N-(2,6-Difluorophenyl)-N′-(3-fluoro-4-{2-[(pyrrolidine-1-carbonyl)amino]pyridin-4-yloxy}phenyl)malonamide], the pIC50 is 7.00. The result for `COc1ccccc1NC(=O)CC(=O)Nc1ccc(Oc2ccnc(NC(=O)N3CCCC3)c2)c(F)c1` [Example 60, N-(2-methoxyphenyl)-N′-(3-fluoro-4-{2-[(pyrrolidine-1-carbonyl)amino]pyridin-4-yloxy}phenyl)malonamide] reads 7.31. Then `O=C(CC(=O)NC1CCCCCC1)Nc1ccc(Oc2ccnc(NC(=O)N3CCCC3)c2)c(F)c1` [Example 61, N-Cycloheptyl-N′-(3-fluoro-4-{2-[(pyrrolidine-1-carbonyl)amino]pyridin-4-yloxy}phenyl)malonamide], with above 7.52.

Turning to `O=C(CC(=O)Nc1ccc(Oc2ccnc(NC(=O)N3CCC3)c2)cc1Cl)Nc1ccc(F)cc1` [Example 64, N-(2-Chloro-4-{2-[(azetidine-1-carbonyl)amino]pyridin-4-yloxy}phenyl)-N′-(4-fluorophenyl)malonamide], the pIC50 is 7.23. Then `O=C(CC(=O)Nc1ccc(Oc2ccnc(NC(=O)N3CCCCC3)c2)cc1Cl)Nc1ccc(F)cc1` [Example 65, N-(2-Chloro-4-{2-[(piperidine-1-carbonyl)amino]pyridin-4-yloxy}phenyl)-N′-(4-fluorophenyl)malonamide], with 7.06; and `O=C(CC(=O)Nc1ccc(Oc2ccnc(NC(=O)N3CCCC3)c2)c(Cl)c1)Nc1ccc(F)cc1` [Example 67, N-(3-Chloro-4-{2-[(pyrrolidine-1-carbonyl)amino]pyridin-4-yloxy}phenyl)-N′-(4-fluorophenyl)malonamide], with 7.17. Then `O=C(CC(=O)Nc1ccc(Oc2ccnc(NC(=O)N3CCOCC3)c2)cc1)Nc1ccc(F)cc1` [Example 71, N-(4-Fluorophenyl)-N′-(4-{2-[(morpholine-4-carbonyl)amino]pyridin-4-yloxy}phenyl)malonamide], with 7.60. Then `CC(=O)Nc1cc(Oc2ccc(NC(=O)CC(=O)Nc3ccc(F)cc3)c(F)c2)ccn1` [Example 74, N-(4-Fluorophenyl)-N′-[4-(2-acetylaminopyridin-4-yloxy)-2-fluorophenyl]malonamide], with 7.48.

In the case of `CCC(=O)Nc1cc(Oc2ccc(NC(=O)CC(=O)Nc3ccc(F)cc3)c(F)c2)ccn1` [Example 75, N-(4-Fluorophenyl)-N′-[4-(2-propionylaminopyridin-4-yloxy)-2-fluorophenyl]malonamide], the pIC50 was 7.27. On to `CC(C)C(=O)Nc1cc(Oc2ccc(NC(=O)CC(=O)Nc3ccc(F)cc3)c(F)c2)ccn1` [Example 76, N-(4-Fluorophenyl)-N′-[4-(2-isobutylylaminopyridin-4-yloxy)-2-fluorophenyl]malonamide], for which the pIC50 was 7.00. The result for `O=C(CC(=O)Nc1ccc(Oc2ccnc(NC(=O)N3CCC(N4CCCCC4)CC3)c2)cc1F)Nc1ccc(F)cc1` [Example 78, N-(4-Fluorophenyl)-N′-{2-fluoro-4-[({[4-(piperidin-1-yl)piperidin-1-yl]carbonyl}amino)pyridin-4-yloxy]phenyl}malonamide] reads 6.89; that for `CCN(CC)CCCN(C)C(=O)Nc1cc(Oc2ccc(NC(=O)CC(=O)Nc3ccc(F)cc3)c(F)c2)ccn1` [Example 83], 7.09; that for `CN(C)C(=O)Nc1cc(Oc2ccc(NC(=O)CC(=O)Nc3ccc(F)cc3)c(F)c2)ccn1` [Example 84, N-{4-[2-(3,3-Dimethylureido)pyridin-4-yloxy]-2-fluorophenyl}-N′-(4-fluorophenyl)malonamide], 7.92.

In the case of `Cc1cc(Oc2ccnc(NC(=O)N(C)C)c2)ccc1NC(=O)CC(=O)Nc1ccc(F)cc1` [Example 86, N-{4-[2-(3,3-Dimethylureido)pyridin-4-yloxy]-2-methylphenyl}-N′-(4-fluorophenyl)malonamide], the pIC50 is 7.26. As to `CN1CCN(CCCN(C)C(=O)Nc2cc(Oc3ccc(NC(=O)CC(=O)Nc4ccc(F)cc4)c(F)c3)ccn2)CC1` [Example 93, N-[2-Fluoro-4-(2-{3-methyl-3-[3-(4-methylpiperazin-1-yl)propyl]ureido}pyridin-4-yloxy)phenyl]-N′-(4-fluorophenyl)malonamide], the pIC50 was 7.03. The result for `O=C(Cc1ccccc1)NC(=S)Nc1ccc(Oc2ccnc(NC(=O)N3CCC3)c2)cc1Cl` [Example 100, Azetidine-1-carboxylic acid {4-[3-chloro-4-(3-phenylacetylthioureido)phenoxy]pyridin-2-yl}amide] reads 6.70. With `CN1CCC(N(C)C(=O)Nc2cc(Oc3ccc(NC(=S)NC(=O)Cc4ccc(F)cc4)cc3F)ncn2)CC1` [Example 170, 3-[6-(2-Fluoro-4-{3-[2-(4-fluorophenyl)acetyl]thioureido}phenoxy)pyrimidin-4-yl]-1-methyl-1-(1-methylpiperidin-4-yl)urea], the pIC50 is 7.18. Consider `O=C(Cc1ccc(F)cc1)NC(=S)Nc1ccc(Oc2cc(NC(=O)N3CCC(N4CCC4)CC3)ncn2)c(F)c1` [Example 172, 4-(Azetidin-1-yl)piperidine-1-carboxylic acid [6-(2-fluoro-4-{3-[2-(4-fluorophenyl)acetyl]thioureido}phenoxy)pyrimidin-4-yl]amide], for which the pIC50 is 7.19.

With `O=C(Cc1ccc(F)cc1)NC(=O)Nc1ccc(Oc2ccnc(NC(=O)N3CCC(N4CCCC4)CC3)c2)c(F)c1` [Example 174, 4-(Pyrrolidin-1-yl)piperidine-1-carboxylic acid [4-(2-fluoro-4-{3-[2-(4-fluorophenyl)acetyl]ureido}phenoxy)pyridin-2-yl]amide], the pIC50 is 7.13. Then `O=C(Cc1ccc(F)cc1)NC(=O)Nc1ccc(Oc2ccnc(NC(=O)N3CCC(N4CCC4)CC3)c2)cc1F` [Example 178, 4-(Azetidin-1-yl)piperidine-1-carboxylic acid [4-(3-fluoro-4-{3-[2-(4-fluorophenyl)acetyl]ureido}phenoxy)pyridin-2-yl]amide], with 7.20; and `CN(C)C[C@@H]1CCN(C(=O)Nc2cc(Oc3ccc(NC(=S)NC(=O)Cc4ccc(F)cc4)cc3F)ncn2)C1` [Example 179, 4-{[(3S)-3-(Dimethylaminomethyl)pyrrolidin-1-yl]carbonylamino}-6-(2-fluoro-4-{3-[2-(4-fluorophenyl)acetyl]thioureido}phenoxy)pyrimidine], with 7.60. As for `CN(C)CC1CCN(C(=O)Nc2cc(Oc3ccc(NC(=S)NC(=O)Cc4ccc(F)cc4)cc3F)ncn2)CC1` [Example 180, 4-{[4-(Dimethylaminomethyl)piperidin-1-yl]carbonylamino}-6-(2-fluoro-4-{3-[2-(4-fluorophenyl)acetyl]thioureido}phenoxy)pyrimidine], the pIC50 is 7.42.

In the case of `CN(C)CCN1CCN(C(=O)Nc2cc(Oc3ccc(NC(=S)NC(=O)Cc4ccc(F)cc4)cc3F)ncn2)CC1` [Example 181, 4-{[4-(2-Dimethylaminoethyl)piperazin-1-yl]carbonylamino}-6-(2-fluoro-4-{3-[2-(4-fluorophenyl)acetyl]thioureido}phenoxy)pyrimidine], the pIC50 was 7.39.
